Series [1] in a line: average particle size and polydispersity index by dynamic light scattering. It is filed as physicochemical. To be noted: Fluc mRNA-loaded lipid nanoparticles, TOT/DSPC/chol/PEG-DMG=65/15/20/1.5 (mol%). Here is the method:
The average particle size (number average value), ζ-average particle size, and polydispersity index (PdI) of the lipid nanoparticles in PBS(-) (pH 7.4), and the zeta potential in 10 mM HEPES buffer (pH 7.4) were measured using an analyzer "Zetasizer Nano ZS ZEN3600" (manufactured by Malvern) utilizing dynamic light scattering.

For series [2], the system named is BALB/c mice. Description: Fluc activity in tissues of mice administered with Fluc mRNA-loaded lipid nanoparticles. It is filed as in vivo. To be noted: Example 33; TOT/DSPC/chol/PEG-DMG=65/15/20/1.5, control CL4F6/DSPC/chol/PEG-DMG=50/10/40/1.5 (mol%); i.v. tail vein. The procedure: Lipid nanoparticles were administered to mice by intravenous injection into the tail vein using a 27G needle. Unless otherwise specified, BALB/c mice (4 to 5 weeks old, female) were used.
First, BALB/c mice (female, 4 weeks old) were intravenously injected with lipid nanoparticles encapsulating Fluc mRNA (Fluc mRNA-loaded lipid nanoparticles) at a dose of 0.01 mg mRNA/kg. Six hours after intravenous injection, the mice were euthanized, each tissue was collected, frozen in liquid nitrogen, and stored at -80°C. The tissues were homogenized in passive lysis buffer (manufactured by Promega) using a bead-type cell disruptor (Micro Smash MS-100R, manufactured by TOMY Seiko). Tissue debris was removed by centrifugation, and the supernatant was collected. Fluc activity in the supernatant was measured using the Luciferase Assay System (E1500, manufactured by Promega) according to the manufacturer's protocol. Luminescence was measured using a luminometer (Luminescencer-PSN, manufactured by ATTO). Protein concentration was determined using a commercially available assay kit (BCA Protein Assay Kit, manufactured by Pierce). Fluc activity was expressed as relative light units (RLU) per mg of protein.
Specifically, first, each lipid nanoparticle was intravenously administered into the tail vein of mice in an amount of 0.2 mg/kg of Fluc mRNA, and 6 hours after administration of the lipid nanoparticles, about 50 mg each of the liver, spleen, lung, heart, brain, and muscle was collected and stored frozen. 500 µL of passive lysis buffer (manufactured by Promega) was added to each tube containing the collected organ. The liver was homogenized at 4000 rpm for 20 seconds twice, the spleen, kidney, lung, and heart were homogenized at 5000 rpm for 20 seconds twice, and the muscle was homogenized at 5000 rpm for 20 seconds four times; then, the homogenate was centrifuged at 13000 rpm at 4°C for 10 minutes, and the supernatant was collected as a sample for measurement. The liver and spleen were diluted 100 times with passive lysis buffer. 50 µL of a measurement sample (tissue supernatant) was mixed with 50 µL of luciferase assay buffer of the Luciferase Assay System (E1500, manufactured by Promega) previously added in a test tube by pipetting, and the amount of luminescence was measured with a luminometer. Protein concentration was determined using a commercially available assay kit (BCA Protein Assay Kit, manufactured by Pierce). Fluc activity was expressed as relative light units (RLU) per mg of protein.

Series [3] can be described thus: encapsulation rate of lipid nanoparticles (RiboGreen). To be noted: Fluc mRNA-loaded lipid nanoparticles, TOT/DSPC/chol/PEG-DMG=65/15/20/1.5 (mol%). Type of series: physicochemical. Here is the method:
The encapsulation rate of the lipid nanoparticles was determined by measuring the amount of encapsulated nucleic acid (mRNA) using RiboGreen (manufactured by Life Technologies), which is an RNAintercalator. The amount of mRNA was quantified based on a calibration curve prepared from a dilution series solution of mRNA at a known concentration.
Specifically, 10 mM HEPES buffer (pH 7.4), 10 w/v% Triton X-100, and RiboGreen were mixed at 978.8 µL, 20 µL, and 1.25 µL per 10 wells, respectively, to obtain a Triton(+) buffer. A Triton(-) buffer was obtained in replacing Triton X-100 with 10 mM HEPES buffer (pH 7.4). 100 µL/well of the sample was added to a black 96-well plate for fluorescence measurement, and 100 µL/well of Triton(+) buffer or Triton(-) buffer was added. After the plate was gently shaken on a shaking incubator (SI-300, manufactured by AS ONE) (700 rpm, 30 seconds), the fluorescence intensity of each well was measured using a microplate reader (VARIOSKAN LUX, manufactured by Thermo Fisher Scientific) (wavelength Ex/Em=500 nm/525 nm), and the nucleic acid encapsulation rate (%) was calculated.

As to `CCCCCCCC/C=C\CCCCCCCC(=O)OCC(COC(=O)CCCCCCC/C=C\CCCCCCCC)(COC(=O)CCCCCCC/C=C\CCCCCCCC)NC(=O)C1CCN(CC)CC1` [TOT-18, 2-(1-ethylpiperidine-4-carboxamide)-2-((oleoyloxy)methyl)propane-1,3-diyl dioleate], in series [1], the PdI is listed as 0.319 and the “ζ-Average Particle Size” value was found to be 130.0 nm. Further, in series [2], the “luciferase activity in the lung compared with control mice (CL4F6-containing lipid nanoparticles)” value is given as “higher” and the “luciferase activity in the muscle compared with control mice (CL4F6-containing lipid nanoparticles)” value is listed as “very high”. Besides, in series [3], the “Encapsulation Rate” value worked out at 92.2%.
Consider `CCCCCCCC/C=C\CCCCCCCC(=O)OCC(COC(=O)CCCCCCC/C=C\CCCCCCCC)(COC(=O)CCCCCCC/C=C\CCCCCCCC)NC(=O)C1CCN(C(C)C)CC1` [TOT-19, 2-(1-isopropylpiperidine-4-carboxamide)-2-((oleoyloxy)methyl)propane-1,3-diyl dioleate], for which, in series [1], the PdI is reported as 0.261 and the “ζ-Average Particle Size” value was found to be 142.6 nm. Moreover, in series [2], the “luciferase activity in the heart compared with control mice (CL4F6-containing lipid nanoparticles)” value was “very high”, the “luciferase activity in the lung compared with control mice (CL4F6-containing lipid nanoparticles)” value is on record as “highest” and the “luciferase activity in the muscle compared with control mice (CL4F6-containing lipid nanoparticles)” value is “very high”. Also, in series [3], the “Encapsulation Rate” value was 92.2%.
